Results on 55 molecules are retold here after ChEMBL document CHEMBL3045881, “(Hetero)aroyl esters of 2-(N-phthalimido)ethanol and analogues: parallel synthesis, anti-HIV-1 activity and cytotoxicity” (Med Chem Res, 2010).

Series [1] is described as follows: Cytotoxicity against mock infected Homo sapiens (human) MT4 cells assessed as cell viability by MTT assay. The format is cell-based. (Tetrazolium dyes change colour on reduction, which living cells bring about.)
Series [2] relates to Human immunodeficiency virus 1. Kind of series: Antiviral activity against wild type Human immunodeficiency virus 1 infected human MT4 cells assessed as inhibition of virus-induced cytopathic effect after 4 days by MTT assay. The format is functional, organism-based. To be noted: Human immunodeficiency virus 1, MT4, 96 h. (Damage to the host cells serves as the signal in cytopathic effect assays.)

Series [3] concerns Human immunodeficiency virus 1. The experiment in a line: Antiviral activity against Human immunodeficiency virus 1 harboring reverse transcriptase K103N, Y181C double mutant infected human MT4 assessed as inhibition of virus-induced cytopathic effect after 4 days by MTT assay. It counts as functional, organism-based.
Series [4] deals with Human immunodeficiency virus 1. The experiment in a line: Antiviral activity against Human immunodeficiency virus 1 harboring reverse transcriptase Y181C mutant infected human MT4 assessed as inhibition of virus-induced cytopathic effect after 4 days by MTT assay. It counts as functional, organism-based. To be noted: Human immunodeficiency virus 1, 96 h.
For series [5], the system named is Human immunodeficiency virus 1. The experiment in a line: Antiviral activity against efavirenz-resistant Human immunodeficiency virus 1 harboring reverse transcriptase K103R, V179D, P225H triple mutant infected human MT4 assessed as inhibition of virus-induced cytopathic effect after 4 days by MTT assay. The format is functional, organism-based.

The structures appear in SMILES notation. Active and inactive are the calls of the source. No cut-off for these calls is given here.

Broadly, the CC50 is the concentration giving 50% cytotoxicity. As a reminder, the EC50 is the concentration needed to bring the measured effect to its halfway point. On to `O=C(OCCN1C(=O)c2ccccc2C1=O)c1cccc(Cl)c1`, for which the CC50 in series [1] was over 100 µM. Moreover, the 50% effective concentration (EC50) in series [2] came out at 93 µM.
`Cc1ccc2c(c1)C(=O)N(CCOC(=O)c1cc(F)ccc1F)C2=O`: the CC50 in series [1] was over 100 µM. The EC50 in series [2] was over 100 µM.
With `Cc1cc(C(=O)OCCN2C(=O)c3ccccc3C2=O)c(C)o1`, the CC50 in series [1] was over 100 µM. Moreover, in series [2], the EC50 was found to be 28 µM.
For `O=C(OC1Cc2cccc3cccc1c23)c1ccc(Cl)c([N+](=O)[O-])c1` (racemic) the same measures were 1.6 µM and over 100 µM.
For `O=C(OCCN1C(=O)c2ccccc2C1=O)c1c(F)cccc1F` the same measures were over 100 µM and 49 µM.
Taken in the same sequence, the figures for `O=C(OCCN1C(=O)c2ccccc2C1=O)c1cccc(F)c1F` were over 100 µM and over 100 µM.
In the case of `O=C(OCCN1C(=O)[C@H]2CCCC[C@H]2C1=O)c1ccc(Cl)c([N+](=O)[O-])c1`, the CC50 in series [1] was determined as 28 µM. The EC50 in series [2] is over 28 µM.
Taken in the same sequence, the figures for `O=C(OCCN1C(=O)c2ccccc2C1=O)c1ccc2ccccc2c1` were over 100 µM and over 100 µM.
Taken in the same sequence, the figures for `O=C(OCCN1C(=O)c2ccccc2C1=O)c1ccccc1Cl` were over 100 µM and 80 µM.
Regarding `O=C(OCCCN1C(=O)c2ccccc2C1=O)c1cc(F)ccc1F`, the CC50 in series [1] was over 100 µM. The 50% effective concentration (EC50) in series [2] is over 100 µM.
For the molecule `O=C(OCCOc1ccc(Br)cc1)c1ccc(Cl)c([N+](=O)[O-])c1`, the CC50 in series [1] is 59 µM. Besides, in series [2], the EC50 was over 59 µM.
For `O=C(OCCS(=O)(=O)c1ccccc1)c1ccc(Cl)c(Cl)c1` the same measures were 19 µM and over 19 µM.
Taken in the same sequence, the figures for `Cc1ccc(F)cc1C(=O)OCCN1C(=O)c2ccccc2C1=O` were over 100 µM and 47 µM.
Taken in the same sequence, the figures for `O=C(OCCN1C(=O)c2ccccc2C1=O)c1cc([N+](=O)[O-])ccc1Cl` were 30 µM and over 30 µM.
For the molecule `O=C(OCCCN1C(=O)c2ccccc2C1=O)c1ccc(Cl)c([N+](=O)[O-])c1`, in series [1], the CC50 was over 100 µM. Moreover, the concentration giving a half-maximal response (EC50) in series [2] was over 100 µM.
For `CCC(C(=O)OCCN1C(=O)c2ccccc2C1=O)c1ccccc1` (racemic), in series [1], the CC50 is over 100 µM. Also, the 50% effective concentration (EC50) in series [2] was 16 µM.
`O=C(OCCN1C(=O)c2ccccc2C1=O)c1ccc([N+](=O)[O-])cc1Cl`: in series [1], the CC50 was over 100 µM. Also, the EC50 in series [2] is 15 µM.
Taken in the same sequence, the figures for `CC(CN1C(=O)c2ccccc2C1=O)OC(=O)c1ccc(Cl)c([N+](=O)[O-])c1` (racemic) were 34 µM and over 34 µM.
As for `O=C(OCCOc1ccc([N+](=O)[O-])cc1)c1ccc(Cl)c([N+](=O)[O-])c1`, the CC50 in series [1] was found to be 47 µM. The EC50 in series [2] is over 47 µM.
Taken in the same sequence, the figures for `O=C(OCCN1C(=O)c2ccccc2C1=O)c1ccccc1[N+](=O)[O-]` were over 100 µM and 80 µM.
For `CC(CN1C(=O)c2ccccc2C1=O)OC(=O)c1cc(F)ccc1F` (racemic), in series [1], the CC50 was over 100 µM. The EC50 in series [2] was over 100 µM.
`O=C(OCCN1C(=O)[C@H]2CCCC[C@H]2C1=O)c1cc(F)ccc1F`: the CC50 in series [1] was over 100 µM. Further, the EC50 in series [2] was over 100 µM.
Turning to `O=C(OCCN1C(=O)c2ccccc2C1=O)c1cc(C(F)(F)F)ccc1F`, the CC50 in series [1] was over 100 µM. The concentration for a half-maximal effect (EC50) in series [2] is over 100 µM.
On to `O=C(OCCN1C(=O)c2ccccc2C1=O)c1cc(F)ccc1Br`, for which the result in series [3] and in series [5] was inactive. Also, the EC50 in series [4] turned out to be 90 µM; in series [2], 35 µM. Further, in series [1], the CC50 is over 100 µM.
On to `CCCCCc1ccc(C(=O)OCCN2C(=O)c3ccccc3C2=O)cc1`, for which, in series [1], the CC50 is over 100 µM. Besides, in series [2], the EC50 is 14 µM.
For `O=C(OCCN1C(=O)c2ccccc2C1=O)c1ccc(F)c(F)c1` the same measures were over 100 µM and over 100 µM.
Taken in the same sequence, the figures for `O=C(OCCN1C(=O)c2ccccc2C1=O)c1cc(F)ccc1Cl` were over 100 µM and over 100 µM.
For `O=C(OCCN1C(=O)c2ccccc2C1=O)c1cccnc1Cl` the same measures were over 100 µM and over 100 µM.
For `Cc1ccc2c(c1)C(=O)N(CCOC(=O)c1ccc(Cl)c([N+](=O)[O-])c1)C2=O`, the CC50 in series [1] stood at 81 µM. The EC50 in series [2] is over 81 µM.
Taken in the same sequence, the figures for `O=C(OC1Cc2cccc3cccc1c23)c1ccc(Cl)c(Cl)c1` (racemic) were 42 µM and over 100 µM.
Taken in the same sequence, the figures for `CC(C)(C)c1ccc2c(c1)C(=O)N(CCOC(=O)c1cc(F)ccc1F)C2=O` were over 100 µM and over 100 µM.
For `O=C(/C=C/c1ccccc1)OCCN1C(=O)c2ccccc2C1=O` the same measures were over 100 µM and 50 µM.
For `O=C(OCCN1C(=O)c2ccccc2C1=O)c1cc(F)cc(F)c1`, the CC50 in series [1] is over 100 µM. The EC50 in series [2] is over 100 µM.
In the case of `O=C(OCCN1C(=O)c2ccccc2C1=O)c1ccccc1`, in series [1], the CC50 was over 100 µM. The EC50 in series [2] was 55 µM.
With `O=C(OCCN1C(=O)c2ccccc2C1=O)c1cccc(F)c1`, the CC50 in series [1] is over 100 µM. Also, in series [2], the EC50 stood at 75 µM.
For `O=C(OCCN1C(=O)c2ccccc2C1=O)c1ccc(F)cc1F` the same measures were over 100 µM and over 100 µM.
Consider `O=C(OCCN1C(=O)c2ccccc2C1=O)c1ccc(Cl)c(Cl)c1`, for which the CC50 in series [1] was over 100 µM. For the same molecule, in series [2], the EC50 was found to be 0.7 µM.
For `O=C(OCCN1C(=O)c2ccccc2C1=O)c1cc(F)ccc1F` the same measures were over 100 µM and 0.2 µM.
Taken in the same sequence, the figures for `O=C(OCCN1C(=O)[C@H]2CC=CC[C@H]2C1=O)c1cc(F)ccc1F` were over 100 µM and over 100 µM.
Regarding `Cc1cc(C(=O)OC2Cc3cccc4cccc2c34)ccc1Br` (racemic), the CC50 in series [1] was determined as 8 µM. Further, in series [2], the EC50 was over 100 µM.
Take `Cc1cccc(C(=O)OCCN2C(=O)c3ccccc3C2=O)c1`: the CC50 in series [1] is over 100 µM. Also, the EC50 in series [2] amounted to 82 µM.
For `O=C(OCN1C(=O)c2ccccc2C1=O)c1cc(F)ccc1F` the same measures were over 100 µM and over 100 µM.
For `O=C(OCCN1C(=O)c2ccccc2C1=O)c1ccc(Br)cc1` the same measures were over 100 µM and over 100 µM.
Taken in the same sequence, the figures for `Cc1cc(C(=O)OCCN2C(=O)c3ccccc3C2=O)ccc1Br` were over 100 µM and 60 µM.
As for `O=C(OCCN1C(=O)c2ccccc2C1=O)c1cc([N+](=O)[O-])ccc1F`, in series [1], the CC50 was over 100 µM. The EC50 in series [2] is over 100 µM.
With `O=C(OCCN1C(=O)c2ccccc2C1=O)c1ccc(Cl)c([N+](=O)[O-])c1`, the CC50 in series [1] is over 100 µM. The EC50 in series [2] amounted to 0.7 µM.
For `O=C(OCCN1C(=O)c2ccccc2C1=O)c1cccc([N+](=O)[O-])c1` the same measures were over 100 µM and 69 µM.
As to `O=C(OCCN1C(=O)c2ccccc2C1=O)c1cc(Cl)cc(Cl)c1`, the CC50 in series [1] was over 100 µM. Also, the EC50 in series [2] came to 27 µM.
`O=C(OCCc1c[nH]c2ccccc12)c1ccc(Cl)c([N+](=O)[O-])c1`: the CC50 in series [1] was 6 µM. Also, in series [2], the concentration for a half-maximal effect (EC50) is over 6 µM.
`O=C(OCCN1C(=O)c2ccccc2C1=O)c1ccc(Cl)nc1`: the CC50 in series [1] was over 100 µM. In addition, the EC50 in series [2] was over 100 µM.
For `O=C(OCN1C(=O)c2ccccc2C1=O)c1ccc(Cl)c([N+](=O)[O-])c1`, in series [1], the CC50 was found to be 11 µM. For the same molecule, the EC50 in series [2] is over 11 µM.
Taken in the same sequence, the figures for `O=C(OCCN1C(=O)[C@H]2CC=CC[C@H]2C1=O)c1ccc(Cl)c([N+](=O)[O-])c1` were 36 µM and over 36 µM.
Taken in the same sequence, the figures for `O=C(OCCN1C(=O)c2ccccc2C1=O)c1cc(Cl)ccc1F` were over 100 µM and over 100 µM.
For `CC(C)(C)c1ccc(C(=O)OCCN2C(=O)c3ccccc3C2=O)cc1` the same measures were 92 µM and over 92 µM.
Turning to `CC(COC(=O)c1cc(F)ccc1F)N1C(=O)c2ccccc2C1=O` (racemic), the cytotoxic concentration (CC50) in series [1] is over 100 µM. In addition, the EC50 in series [2] is over 100 µM.
